{
  "source": "patent US20140056964A1",
  "about": "“GRANZYME B INHIBITOR COMPOSITIONS, METHODS AND USES FOR PROMOTING WOUND HEALING” (THE UNIVERSITY OF BRITISH COLUMBIA, priority 2010, published 2014)",
  "key": {"Granzyme B [1]": {"molecular_target": "T1, Granzyme B (Homo sapiens, UniProt P10144)", "T1 sequence (P10144 21-247)": "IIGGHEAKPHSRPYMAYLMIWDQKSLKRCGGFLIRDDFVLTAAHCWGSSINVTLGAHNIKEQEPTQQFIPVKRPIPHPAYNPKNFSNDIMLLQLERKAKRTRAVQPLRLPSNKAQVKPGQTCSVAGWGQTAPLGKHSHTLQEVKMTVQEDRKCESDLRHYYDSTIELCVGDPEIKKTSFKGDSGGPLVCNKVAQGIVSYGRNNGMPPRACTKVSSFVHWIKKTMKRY", "assay": "cleavage of endogenous HCASMC-derived ECM (fibronectin, decorin Western blot) by 100 nM Granzyme B +/- inhibitor", "assay_type": "biochemical", "conditions": "inhibitor at 150 μM", "experimental": "More specifically, as it relates to FIG. 18, to synthesize endogenous ECM, human coronary artery smooth muscle cells were seeded in 6 well plates and incubated at confluency for 7 days in serum starvation media (SMGM+0.2% FBS). Cells were removed from the plates by incubation with 0.25M Ammonium Hydroxide for 20 min. This treatment removes cells while leaving the surrounding extracellular matrix intact. Subsequently, 100 nM Granzyme B and the inhibitor of interest were incubated on the endogenous ECM for 24 h. Supernatants from the plates (containing cleavage fragments) were run on an SDS-PAGE gel and Western blotted for fibronectin or decorin. DMSO solvent control was not included due to redundancy. Asterisk=full length protein; Arrow=cleavage fragments, star denotes full length. […] Cells were removed from the plates by incubation with 0.25M Ammonium Hydroxide for 20 min. This treatment removes cells while leaving the surrounding extracellular matrix intact. Subsequently, 100 nM Granzyme B and the inhibitor of interest were incubated on the endogenous ECM for 24 h. Supernatants from the plates (containing cleavage fragments) were run on to an SDS-PAGE gel and Western blotted for fibronectin or decorin. DMSO solvent control was not included due to redundancy. Asterisk=full length protein; Arrow=cleavage fragments, star denotes full length."}, "Granzyme B [2]": {"molecular_target": "T1, Granzyme B", "assay": "continuous colorimetric Granzyme B inhibition assay with substrate Ac-IEPD-pNA", "assay_type": "biochemical", "conditions": "substrate Ac-IEPD-pNA 20 μM, 37° C., pNA release at 405 nm", "experimental": "Small molecule libraries (ZINC—Irwin J J and Shoichet B K, 2005. J. Chem Inf Model 4591:177-182; NCI—Voigt, J. H. et al. J. Chem. Inf Comput. Sci. 2001, 41, 702-712) were screened in silico for candidate Granzyme B inhibitory compounds. Several candidate small molecule inhibitors were identified and subjected to an in vitro Granzyme B inhibition assay. More specifically, a continuous colormetric assay for Granzyme B activity was carried out with the substrate Ac-IEPD-pNA. Briefly, 8 ug/ml Granzyme B, 20 μM substrate, and increasing concentrations of the inhibitor of interest was incubated in a final reaction volume of 50 ul. The reaction buffer consisted of 50 mM HEPES pH 7.5, 10% sucrose, 0.1% CHAPS and 5 mM DTT and reactions were carried out at 37° C. pNA release and Granzyme B inhibition was monitored at 405 nm on a Tecan Safire microplate reader.\nAs detailed herein and as detailed in Tables A and B herein, candidate inhibitors, and IC50 concentration obtained from the inhibition assay are set out below."}, "[3]": {"molecular_target": "T2, purified human Granzyme B (Homo sapiens, UniProt P10144)", "T2 construct": "purchased Axxora, San Diego, Calif", "T2 sequence (P10144 21-247)": "as above", "assay": "proteoglycan cleavage assay (recombinant decorin, biglycan, betaglycan incubated with Granzyme B +/- inhibitor, SDS-PAGE)", "assay_type": "biochemical", "conditions": "for Granzyme B cleavage of decorin: 24 h, 30 ul, Coomassie Blue stain", "experimental": "For ECM cleavage assays, Granzyme B and/or the inhibitor 3,4-dichloroisocoumarin (DCI), were incubated for 4 and 24 hours at room temperature, with decorin, biglycan or soluble betaglycan and visualized by Ponceau staining. Cleavage fragments were subjected to Edman degradation for cleavage site identification.\nProteoglycan cleavage assays. The recombinant human PGs, decorin (0.5 μg, Abnova, Walnut, Calif.), biglycan and betaglycan (1.5-5 ug, R&D Systems, Minneapolis, Minn.) were incubated at room temperature for 24 h with 25-500 nM purified human Granzyme B (Axxora, San Diego, Calif.), in 50 mM Tris buffer, pH 7.4. For inhibitor studies, Granzyme B was incubated in the presence or absence of 200 μM of the serine protease inhibitor 3,4-dichloroisocoumarin (DCI; Santa Cruz Biotechnology Inc, Santa Cruz, Calif.) or inhibitor solvent control, dimethyl sulfoxide (DMSO; Sigma-Aldrich, St Louis, Mo.) for 4 h or 24 h. After incubation, proteins were denatured, separated on a 10% SDS-polyacrylamide gel and transferred to a nitrocellulose membrane. Ponceau stain (Fisher Scientific, Waltham, Mass.) was used to detect cleavage fragments.\nSamples were run on a 10% gel, imaged with Ponceau stain and scanned.\nIn this Example, incubations were performed at RT for 24 h in a total reaction volume of 30 ul. Samples were run on a 10% gel and imaged by Coomassic Blue stain. With reference to FIG. 17, the asterisk=full length protein.\nSamples were run on a 10% gel, imaged with Ponceau stain and scanned. […] DMSO vehicle control was not included due to redundancy. Asterisk=full length protein; Arrow=cleavage fragments. Obstruction in Granzyme B/Betaglycan lane affecting first 2 cleavage fragments."}, "Granzyme B [4]": {"molecular_target": "T1, Granzyme B", "assay": "fibronectin cleavage by Granzyme B +/- inhibitor", "assay_type": "biochemical", "conditions": "inhibitor at 3.12 nM", "experimental": "As shown in FIGS. 21A and B herein, incubations as described herein were performed with fibronectin (FN) and Granzyme B, both in the absence of inhibitor Willoughby 20 and in the presence of inhibitor Willoughby 20. Compound Willoughby 20 inhibits Granzyme B cleavage of FN at 3.12 nM."}, "Granzyme B [5]": {"molecular_target": "T1, Granzyme B", "assay": "TGF-β release assay from proteoglycan/TGF-β complexes (Western blot of supernatants)", "assay_type": "biochemical", "conditions": "for release of TGF-β from betaglycan/TGF-β complexes by Granzyme B: 20 ug/ml betaglycan, 10 ng TGF-β, 24 h at RT", "experimental": "Cytokine release was assessed in supernatants using Western blotting. TGF-β release assays were carried out using a method similar to that previously described for the MMPs (Imai et al. 1997). Briefly, decorin, biglycan and betaglycan (15 μg/mL) were coated onto 48 well tissue culture plastic plates and allowed to incubate overnight at 4° C. in PBS, pH 7.4. After blocking with 1% bovine serum albumin, 20 ng of active TGF-β1 per well (Peprotech Inc, Rocky Hill, N.J.) was added in DPBS containing calcium and magnesium (#14040, Invitrogen, Carlsbad, Calif.) for 5 h at RT. Granzyme B, with or without DCI, was then added to the wells. After 24 h, supernatants were removed, denatured, and run on a 15% SDS-PAGE gel. Once transferred to a nitrocellulose membrane and blocked with 10% skim milk, the membrane was probed using a rat anti-human TGF-β1 antibody (1:200, BD Biosciences, Franklin Lakes, N.J.) and IRDye® 800 conjugated affinity purified anti-Rat IgG (1:3000, Rockland Inc, Gilbertsville, Pa.). Bands were imaged using the Odyssey Infrared Imaging System (LI-COR Biotechnology, Lincoln, Nebr.). In this Example, 20 ug/ml betaglycan was coated onto 48 well plates and incubated with 10 ng of TGF-β. Excess TGF-β was washed off the plate and betaglycan/TGF-β complexes were incubated with Granzyme B+/− inhibitors for 24 h at RT. Supernatants (containing released TGF-β) were collected and Western blotted for TGF-β. There is little non-specific dissociation of TGF-β into supernatants in the absence of Granzyme B (2; see FIG. 16). TGF-β is released by Granzyme B after 24 h of incubation (4; see FIG. 16)."}, "[6]": {"tested_on": "human coronary artery smooth muscle cells (HCASMC)", "assay": "Human coronary artery smooth muscle cell TGF-β bioavailability assay (SMAD-3 / Erk phosphorylation)", "assay_type": "cell-based", "conditions": "supernatants of betaglycan release assay (Granzyme B +/- DCI) on cells for 16 h", "experimental": "To determine if the TGF-β released by Granzyme B was active, supernatants from the above release assay were incubated on human coronary artery smooth muscle cells (HCASMC) and SMAD/Erk activation was examined by Western blotting. For bioavailability assays, HCASMCs (Clonetics/Lonza, Walkersville, Md.) at passage 3-5 were seeded in 6 well plates in smooth muscle cell growth media (SmGM, Clonetics) +5% fetal bovine serum (FBS, Invitrogen) and grown to confluence. At this time, cells were quiesced by serum removal for 24 h, after which time 150 μl of release assay supernatants (as described above) or a 10 ng TGF-β positive control were added to the cells for 16 h. Cell lysates were assessed by SDS-PAGE/Western blotting for phosphorylated-Erk 1/2 (p-Erk1/2; 1:1000, Cell Signaling Technology, Danvers, Mass.), total Erk 1/2 (t-Erk1/2; 1:1000, Cell Signaling Technology), phosphorylated-SMAD3 (p-SMAD3; 1:2000, Epitomics, Burlingame, Calif.), total SMAD3 (t-SMAD3; 1:500, BD Biosciences) and the loading controls β-actin (1:5000, Sigma-Aldrich) or β-tubulin (1:3000, Millipore, Billerica, Mass.). Secondary IRDye® 800 conjugated antibodies (1:3000, Rockland Inc) were utilized and imaged with the Odyssey Infrared Imaging System (LI-COR Biotechnology). […]"}},
  "note": "Entries after “also recorded” stand apart in the source; their conditions may differ.",
  "data": [
    {"smiles": "CC(=O)c1ccc(NC(=O)/C(O)=C(\\C(=O)/C=C\\c2ccccc2)[C@@H]2OC(=O)c3ccccc32)cc1", "note": "[ZINC05723764]", "values": [
      {"measurement": "decorin cleavage by Granzyme B", "setting": "Granzyme B [1]", "value": "effective"},
      {"measurement": "IC50", "setting": "Granzyme B [2]", "value": "~25", "unit": "µM"},
      {"measurement": "Granzyme B cleavage of betaglycan", "setting": "[3]; inhibitor at 100 μM, RT, 4 h", "value": "does not inhibit"}
    ]},
    {"smiles": "Cc1ccc(NC(=O)/C(O)=C(/C(=O)/C=C/c2ccccc2)C2OC(=O)c3ccccc32)c(C)c1", "note": "(stereo not drawn) [ZINC05723787]", "values": [
      {"measurement": "IC50", "setting": "Granzyme B [2]", "value": "~40", "unit": "µM"},
      {"measurement": "Granzyme B cleavage of betaglycan", "setting": "[3]; inhibitor at 50 μM, RT, 4 h", "value": "partially inhibits"},
      {"measurement": "Granzyme B cleavage of betaglycan", "setting": "[3]; inhibitor at 100 μM, RT, 4 h", "value": "completely"}
    ]},
    {"smiles": "CC[C@H](C)[C@H](NC(=O)Cc1csc2ccccc12)C(=O)N[C@H]1CCc2cccc3c2N(C1=O)[C@H](C(=O)NCc1c[nH]nn1)C3", "note": "[Willoughby 20, Azepino[3,2,1-hi]indole-2-carboxamide, 5-[[(2S,3S)-2-[(2-benzo[b]thien-3-ylacetyl)amino]-3-methyl-1-oxopentyl]amino]-1,2,4,5,6,7-hexahydro-4-oxo-N-(1H-1,2,3-triazol-5-ylmethyl)-, (2S,5S)-]", "values": [
      {"measurement": "Granzyme B cleavage of fibronectin (FN)", "setting": "Granzyme B [4]", "value": "inhibits"},
      {"measurement": "IC50", "setting": "Granzyme B [2]", "value": "~3.1", "unit": "µM"},
      {"measurement": "Granzyme B cleavage of decorin", "setting": "[3]; RT", "value": "Inhibits"},
      {"measurement": "Granzyme B cleavage of decorin", "setting": "[3]; RT, listed as compound 20", "value": "prevented"},
      {"measurement": "Granzyme B cleavage of betaglycan", "setting": "[3]; room temperature, 24 hours, 30 μl, Ponceau stain", "value": "inhibits"},
      {"measurement": "release of TGF-β from betaglycan/TGF-β complexes by Granzyme B", "setting": "Granzyme B [5]", "value": "inhibited"}
    ]},
    {"smiles": "Cc1ccc(NC(=O)/C(O)=C(/C(=O)c2ccc3ccccc3c2)[C@H]2OC(=O)c3ccccc32)c(C)c1", "note": "(stereo in doubt) [ZINC05316154]", "values": [
      {"measurement": "IC50", "setting": "Granzyme B [2]", "value": "~195", "unit": "µM"}
    ]},
    {"smiles": "O=C1CCC(=O)/C(=C(/O)CCC(=O)Nc2cccc(Cl)c2)C1", "note": "[ZINC05315460]", "values": [
      {"measurement": "IC50", "setting": "Granzyme B [2]", "value": "~100", "unit": "µM"}
    ]},
    {"smiles": "O=c1oc(Cl)c(Cl)c2ccccc12", "note": "[DCI, 3,4-dichloroisocoumarin]", "values": [
      {"measurement": "TGF-β signaling (SMAD-3 and Erk 1/2 phosphorylation) in HCASMC", "setting": "[6]", "value": "limited TGF-β signaling"},
      {"measurement": "Granzyme B-mediated cleavage of decorin, biglycan and betaglycan", "setting": "[3]; 200 μM DCI, 4 h and 24 h, room temperature, Ponceau stain", "value": "effectively inhibited"},
      {"measurement": "release of TGF-β from betaglycan/TGF-β complexes by Granzyme B", "setting": "Granzyme B [5]", "value": "partially inhibited"},
      {"measurement": "release of TGF-β from decorin, biglycan and betaglycan by Granzyme B", "setting": "Granzyme B [5]; 24 h incubation, Western blot of supernatants", "value": "not released; also recorded: inhibited; also recorded: no release evident"}
    ]},
    {"smiles": "CC(=O)c1ccccc1NC(=O)/C(O)=C(/C(=O)c1ccccc1-c1ccccc1)[C@@H]1OC(=O)c2ccccc21", "note": "[ZINC05723646]", "values": [
      {"measurement": "IC50", "setting": "Granzyme B [2]", "value": "~250", "unit": "µM"}
    ]},
    {"smiles": "CCOc1ccccc1NC(=O)/C(O)=C(/C(=O)c1ccc2ccccc2c1)[C@@H]1OC(=O)c2ccccc21", "note": "[ZINC05398428]", "values": [
      {"measurement": "IC50", "setting": "Granzyme B [2]", "value": "~255", "unit": "µM"}
    ]},
    {"smiles": "Cc1ccc(NC(=O)/C(O)=C(/C(=O)c2ccc3ccccc3c2)[C@@H]2OC(=O)c3ccccc32)cc1C", "note": "[ZINC05723503]", "values": [
      {"measurement": "IC50", "setting": "Granzyme B [2]", "value": "~270", "unit": "µM"}
    ]},
    {"smiles": "CC(=O)CCC(=O)CC(=O)CCC(=O)Nc1cc(Cl)ccc1Cl", "note": "[ZINC05316859]", "values": [
      {"measurement": "IC50", "setting": "Granzyme B [2]", "value": "~250", "unit": "µM"}
    ]},
    {"smiles": "COC(=O)CC/C(O)=C(/C(=O)CCC(=O)Nc1ccc(Cl)cc1Cl)C(=O)OC", "note": "[ZINC05317216]", "values": [
      {"measurement": "IC50", "setting": "Granzyme B [2]", "value": "~50", "unit": "µM"}
    ]},
    {"smiles": "O=C(Nc1ccc(Cl)cc1Cl)/C(O)=C\\C(=O)[C@@H]1CCOC1=O", "note": "(stereo in doubt) [ZINC05605947]", "values": [
      {"measurement": "IC50", "setting": "Granzyme B [2]", "value": "~320", "unit": "µM"}
    ]}
  ]
}
